According to US20240158446A1, “CYCLIC COMPOUND HAVING SELECTIVE INHIBITORY ACTION ON KRAS OVER HRAS AND NRAS” (CHUGAI SEIYAKU KABUSHIKI KAISHA, priority 2021, published 2024):
Where two headings read alike, the source gives them in different places. *1 amine or outer side, *2 acyl side, *3 side chain or, on linkers, in order; H or OH if unused. Where a SMILES comes first, the peptide text is derived from it. Bridges are numbered along the chain shown (N, C = ends). [ ]: non-standard residue; d: D form. The star is where a group is joined. hPhe(3,5-F2-4-CF3) = N[C@@H](CCc1cc(F)c(C(F)(F)F)c(F)c1)C(=O)O; hPhe(3-Cl-4-CF3) = N[C@@H](CCc1ccc(C(F)(F)F)c(Cl)c1)C(=O)O; X34 = Cc1ccc(C[C@@H](C(=O)[*:2])N(CCC(C)(C)C)[*:1])cc1; NPrPhe(4-CF3) = CCCN[C@@H](Cc1ccc(C(F)(F)F)cc1)C(=O)O; NMeGly(cPent) = CN[C@H](C(=O)O)C1CCCC1; Aze(3S-Me) = C[C@H]1CN[C@@H]1C(=O)O; Nva(3-Et) = CCC(CC)[C@H](N)C(=O)O; NMeD = CN[C@@H](CC(=O)O)C(=O)O; NMeL = CN[C@@H](CC(C)C)C(=O)O; Morpholide = C1CN(*)CCO1; NMeA = CN[C@@H](C)C(=O)O; Ac5c = NC1(C(=O)O)CCCC1; Aze = O=C(O)[C@@H]1CCN1; Sar = CNCC(=O)O

Experiments:
[1] = test system: human lung cancer strain NCI-H441;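 note: cell proliferation inhibition after four days measured by CellTiter-Glo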
[2] = biological target: GDP-bound NRAS wild-type protein (Homo sapiens, UniProt P01111); assay: Binding to NRAS by surface plasmon resonance (SPR), Single Cycle Kinetics; details: SPR; for NRAS/KRAS (ratio of KD value for NRAS to KD value for KRAS) / NRAS/KRAS (ratio of KD value with respect to NRAS to KD value with respect to KRAS): GDP-bound NRAS wild-type protein vs GDP-bound KRAS wild-type protein
GDP-bound NRAS wild-type protein, sequence (P01111 whole entry): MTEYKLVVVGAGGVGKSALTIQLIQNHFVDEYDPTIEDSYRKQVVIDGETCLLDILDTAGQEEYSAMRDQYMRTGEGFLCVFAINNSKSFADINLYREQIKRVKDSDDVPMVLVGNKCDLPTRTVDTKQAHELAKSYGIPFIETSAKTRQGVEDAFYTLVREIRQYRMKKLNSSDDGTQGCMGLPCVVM

[3] = biological target: GDP-bound HRAS wild-type protein (Homo sapiens, UniProt P01112); assay: Binding to HRAS by surface plasmon resonance (SPR), Single Cycle Kinetics; details: SPR; for HRAS/KRAS (ratio of KD value for HRAS to KD value for KRAS) / HRAS/KRAS (ratio of KD value with respect to HRAS to KD value with respect to KRAS): GDP-bound HRAS wild-type protein vs GDP-bound KRAS wild-type protein
GDP-bound HRAS wild-type protein, sequence (P01112 whole entry): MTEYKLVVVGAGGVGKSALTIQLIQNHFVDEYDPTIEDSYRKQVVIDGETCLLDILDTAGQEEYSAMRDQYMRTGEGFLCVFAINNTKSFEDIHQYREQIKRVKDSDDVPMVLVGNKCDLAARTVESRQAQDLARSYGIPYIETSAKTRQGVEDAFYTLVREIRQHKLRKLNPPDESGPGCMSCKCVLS

Row | SMILES | NRAS/KRAS (ratio of KD value for NRAS to KD value for KRAS) [2] | HRAS/KRAS (ratio of KD value for HRAS to KD value for KRAS) [3] | IC50 [1] [µM] | NRAS/KRAS (ratio of KD value with respect to NRAS to KD value with respect to KRAS) [2] | HRAS/KRAS (ratio of KD value with respect to HRAS to KD value with respect to KRAS) [3] | other results
1 | CCC[C@H]1C(=O)N[C@@H]([C@@H](C)CC)C(=O)N(C2CC2)CC(=O)N(C)[C@H]2C/C=C\CCN(C2=O)[C@@H](Cc2ccc(C)cc2)C(=O)N(C)CC(=O)N[C@@H](CCc2cc(F)c(C(F)(F)F)c(F)c2)C(=O)N2C[C@H](OCC)C[C@H]2C(=O)N(C)C2(CCC2)C(=O)N(C)[C@@H](C2CCCC2)C(=O)N(C)[C@H](C(=O)N2CCCCC2)CC(=O)N1C [PP3111, (2S,8S,12R,14S,20S,23S,27S,30S,36S,38Z)-20-cyclopentyl-32-cyclopropyl-8-[2-[3,5-difluoro-4-(trifluoromethyl)phenyl]ethyl]-12-ethoxy-4,16,19,22,26,35-hexamethyl-30-[(1S)-1-methylpropyl]-23-(piperidine-1-carbonyl)-27-propyl-2-(p-tolylmethyl)spiro[1,4,7,1016192226293235-undecazatricyclo[34.5.1.0^10,14]dotetracont-38-ene-17,1′-cyclobutane]-3,6,9,15,18,21,25,28,31,34,42-undecone] | A (a compound having 10 or more and less than 20 is denoted as A) | A (a compound having 10 or more and less than 20 is denoted as A) | – | – | – | IC50 ([1]; read-out: NCI-H441 cell proliferation inhibitory activity, 50% proliferation inhibitory concentration (IC50 value), NCI-H441, four days, CellTiter-Glo): 0.0178 µM; ratio of the KD value with respect to GDP-bound NRAS wild-type protein to the KD value with respect to KRAS ([2]; KD(NRAS)/KD(KRAS)): A (a compound having 10 or more and less than 20 is denoted as A); ratio of the KD value with respect to GDP-bound HRAS wild-type protein to the KD value with respect to KRAS ([3]; KD(HRAS)/KD(KRAS)): A (a compound having 10 or more and less than 20 is denoted as A)
2 | CC[C@H](C)[C@@H]1NC(=O)[C@H](CC(C)C)N(C)C(=O)C[C@@H](C(=O)N2CCOCC2)N(C)C(=O)[C@H](C2CCCC2)N(C)C(=O)C2(CCC2)NC(=O)[C@@H]2[C@@H](OCC3CCCC3)CCN2C(=O)[C@H](CCc2cc(F)c(C(F)(F)F)c(F)c2)NC(=O)CN(C)C(=O)[C@H](Cc2ccc(C(F)(F)F)cc2)N2CCCCC[C@@H](C2=O)N(C)C(=O)CN(C)C1=O [PP1011] | A (a compound having 10 or more and less than 20 is denoted as A) | B (a compound having 3 or more and less than 10 is denoted as B) | 0.314 | – | – | –
3 | CCO[C@@H]1C[C@H]2C(=O)NC3(CCC3)C(=O)N(C)[C@@H](C3CCCC3)C(=O)N(C)[C@H](C(=O)N3CCOCC3)CC(=O)N(C)[C@@H](CC(C)C)C(=O)N[C@@H]([C@@H](C)CC)C(=O)N(C)CC(=O)N(C)[C@H]3CCCCCN(C3=O)[C@@H](Cc3ccc(F)c(F)c3)C(=O)N(C)CC(=O)N[C@@H](CCc3cc(F)c(C(F)(F)F)c(F)c3)C(=O)N2C1 [PP0917] | B (a compound having 3 or more and less than 10 is denoted as B) | B (a compound having 3 or more and less than 10 is denoted as B) | 0.0252 | – | – | –
4 | CCO[C@@H]1C[C@H]2C(=O)NC3(CCC3)C(=O)N(C)[C@@H](C3CCCC3)C(=O)N(CCC3CCCC3)[C@H](C(=O)N3CCOCC3)CC(=O)N(C)[C@@H](CC(C)C)C(=O)N[C@@H]([C@@H](C)CC)C(=O)N(C)CC(=O)N(C)[C@H]3CCCCCN(C3=O)[C@@H](Cc3ccc(C(F)(F)F)cc3)C(=O)N(C)CC(=O)N[C@@H](CCc3cc(F)c(C(F)(F)F)c(F)c3)C(=O)N2C1 [PP0641] | – | – | > 1.3 | A (a compound having 10 or more and less than 20 is denoted as A) | A (a compound having 10 or more and less than 20 is denoted as A) | –
5 | CCCN1C(=O)CN(C)C(=O)CN(C)C(=O)[C@H]([C@@H](C)CC)NC(=O)[C@@H]2CCCCCCC[C@@H](NC(=O)[C@@H]3C[C@@H](OCC)CN3C(=O)[C@H](CCc3cc(F)c(C(F)(F)F)c(F)c3)NC(=O)CN(C)C(=O)[C@@H]1Cc1ccc(C(F)(F)F)cc1)C(=O)N(C)[C@@H](C1CCCC1)C(=O)N(C)[C@H](C(=O)N(C)C)CC(=O)N2C [PP0925] | A (a compound having 10 or more and less than 20 is denoted as A) | B (a compound having 3 or more and less than 10 is denoted as B) | 0.091 | – | – | –
6 | CCCN1C(=O)CN(C)C(=O)[C@@H]2CCN2C(=O)[C@H](C(CC)CC)NC(=O)[C@H](CC(C)C)N(C)C(=O)C[C@@H](C(=O)N2CCOCC2)N(C)C(=O)[C@H](C2CCCC2)N(C)C(=O)C2(CCCC2)NC(=O)[C@@H]2CCCN2C(=O)[C@H](CCc2cc(F)c(C(F)(F)F)c(F)c2)NC(=O)CN(C)C(=O)[C@@H]1Cc1ccc(C(F)(F)F)cc1 [PP0785] ([NMeL][Nva(3-Et)][Aze][Sar][NPrPhe(4-CF3)][Sar][hPhe(3,5-F2-4-CF3)]P[Ac5c][NMeGly(cPent)][NMeD]-Morpholide; lactam N-11) | – | – | 0.324 | B (a compound having 3 or more and less than 10 is denoted as B) | B (a compound having 3 or more and less than 10 is denoted as B) | –
7 | CC[C@H](C)[C@@H]1NC(=O)[C@@H](CC(C)C)N(C)C(=O)C[C@@H](C(=O)N(C)C)N(C)C(=O)[C@H](C2CCCC2)N(C)C(=O)C2(CCCC2)NC(=O)[C@@H]2CCCN2C(=O)[C@@H](CCc2ccc(C(F)(F)F)c(Cl)c2)NC(=O)CN(C)C(=O)[C@@H](Cc2ccc(C(F)(F)F)cc2)N2C/C=C\COC[C@@H](C2=O)N(C)C(=O)CN(C)C1=O [PP0626] | – | – | 0.158 | C (A compound having a KD ratio of 0.1 or more and less than 3 is denoted as C) | C (A compound having a KD ratio of 0.1 or more and less than 3 is denoted as C) | –
8 | CCC(CC)[C@H]1C(=O)N(C)[C@H](C(=O)N2CCCCC2)CC(=O)N(C)[C@H]2CCC/C=C/c3ccc(cc3)C[C@@H](C(=O)N(C)CC(=O)N[C@@H](CCc3ccc(Cl)c(Cl)c3)C(=O)N3CCC[C@H]3C(=O)NC3(CC(C)(C)C3)C(=O)N1C)N1CC/C=C\C[C@@H](C1=O)N(C)C(=O)CN(C)C(=O)[C@H]([C@@H](C)CC)NC2=O [PP3055] | AA (a compound having 20 or more is denoted as AA) | A (a compound having 10 or more and less than 20 is denoted as A) | – | – | – | IC50 ([1]; read-out: NCI-H441 IC50, NCI-H441 cells, four days, CellTiter-Glo): 0.0692 µM
9 | CCCN1C(=O)CN(C)C(=O)[C@@H]2[C@@H](C)CN2C(=O)[C@H]([C@@H](C)CC)NC(=O)[C@H](CC(C)C)N(C)C(=O)C[C@@H](C(=O)N2CCOCC2)N(C)C(=O)[C@H](C2CCCC2)N(C)C(=O)C2(CCCC2)NC(=O)[C@@H]2CCCN2C(=O)[C@H](CCc2ccc(C(F)(F)F)c(Cl)c2)NC(=O)CN(C)C(=O)[C@@H]1Cc1ccc(C(F)(F)F)cc1 [PP0258] ([NMeL]I[Aze(3S-Me)][Sar][NPrPhe(4-CF3)][Sar][hPhe(3-Cl-4-CF3)]P[Ac5c][NMeGly(cPent)][NMeD]-Morpholide; lactam N-11) | B (a compound having 3 or more and less than 10 is denoted as B) | C (A compound having a KD ratio of 0.1 or more and less than 3 is denoted as C) | 0.0113 | – | – | –
10 | CC[C@H](C)[C@@H]1NC(=O)[C@H](CC(C)C)N(C)C(=O)C[C@@H](C(=O)N(C)C)N(C)C(=O)[C@@H](C2CCCC2)N(C)C(=O)C2(CCCC2)NC(=O)[C@@H]2CCCN2C(=O)[C@H](CCc2ccc(C(F)(F)F)c(Cl)c2)NC(=O)CN(C)C(=O)[C@H](Cc2ccc(C(F)(F)F)cc2)N2CC/C=C(/C)C[C@@H](C2=O)N(C)C(=O)CN(C)C1=O [PP0617] | – | – | 0.159 | B (a compound having 3 or more and less than 10 is denoted as B) | B (a compound having 3 or more and less than 10 is denoted as B) | –
11 | CCO[C@@H]1C[C@H]2C(=O)NC3(CCC3)C(=O)N(C)[C@@H](C3CCCC3)C(=O)N(C)[C@H](C(=O)N(C)C)CC(=O)N(C)[C@@H](Cc3ccccc3C)C(=O)N[C@@H]([C@@H](C)CC)C(=O)N(C)CC(=O)N(C)[C@H]3CCCCCN(C3=O)[C@@H](Cc3ccc(C(F)(F)F)cc3)C(=O)N(C)CC(=O)N[C@@H](CCc3cc(F)c(C(F)(F)F)c(F)c3)C(=O)N2C1 [PP0941] | B (a compound having 3 or more and less than 10 is denoted as B) | B (a compound having 3 or more and less than 10 is denoted as B) | 0.0639 | – | – | –
12 | CCO[C@@H]1C[C@H]2C(=O)NC3(CCC3)C(=O)N(C)[C@@H](C3CCCC3)C(=O)N(C)[C@H](C(=O)N(CC)CC)CC(=O)N(C)[C@@H](CC(C)C)C(=O)N[C@@H]([C@@H](C)CC)C(=O)N(C)CC(=O)N(C)[C@H]3C/C=C\CCN(C3=O)[C@@H](Cc3ccc(C)cc3)C(=O)N(C)CC(=O)N[C@@H](CCc3ccc(C(F)(F)F)c(OC)c3)C(=O)N2C1 [PP1887] | – | – | – | – | – | IC50 ([1]; read-out: NCI-H441 IC50, NCI-H441 cell proliferation, 4 days, CellTiter-Glo): 0.0192 µM; NRAS/KRAS (KD ratio) ([2]; ratio of KD for GDP-bound NRAS wild-type protein to KD for KRAS): A (a compound having 10 or more and less than 20 is denoted as A); HRAS/KRAS (KD ratio) ([3]; ratio of KD for GDP-bound HRAS wild-type protein to KD for KRAS): B (a compound having 3 or more and less than 10 is denoted as B)
13 | CC[C@H](C)[C@@H]1NC(=O)[C@H](CC(C)C)N(C)C(=O)C[C@@H](C(=O)N2CCOCC2)N(C)C(=O)[C@H](C2CCCC2)N(C)C(=O)C2(CCCC2)NC(=O)[C@@H]2CCCN2C(=O)[C@H](CCc2ccc(C(F)(F)F)c(Cl)c2)NC(=O)CN(C)C(=O)[C@H](Cc2ccc(C)cc2)N(CCC(C)(C)C)C(=O)[C@@H]2CCN2C(=O)[C@H](C)N(C)C1=O [PP0087] ([NMeL]I[NMeA][Aze][X34][Sar][hPhe(3-Cl-4-CF3)]P[Ac5c][NMeGly(cPent)][NMeD]-Morpholide; lactam N-11) | C (A compound having a KD ratio of 0.1 or more and less than 3 is denoted as C) | C (A compound having a KD ratio of 0.1 or more and less than 3 is denoted as C) | 0.024 | – | – | –
